According to US5932568A, “6-methoxy-1H-benzotriazole-5-carboxamide derivatives and pharmaceutical compositions containing them” (priority 1994, dated 1999):
Structures can show the parent of a compound that is named as a salt.

Assays:
[1] = test system: apomorphine-induced vomiting; assay: Inhibitory effect on apomorphine-induced vomiting; assay type: in vivo, dogs (Beagle); conditions: Canis lupus familiaris, po, 1 h, 2 h before s.c. apomorphine hydrochloride 0.3 mg/kg, emetic episodes 1 h; for inhibition in vivo at 1 mg/kg: 1.0 mg/kg oral; for inhibition in vivo at 0.1 mg/kg: 0.1 mg/kg oral
Protocol: A group of 3-4 dogs (Beagle, 8-15 kg) was used for examining inhibitory effects of the test compounds on apomorphine-induced vomiting according to the method of Chen and Ensor [cf. J. Pharmacol. Exp. Ther., 98, 245-250 (1950)]. Test compounds, dissolved or suspended in a 0.5% tragacanth solution were orally administered two hours before the subcutaneous administration of apomorphine hydrochloride (0.3 mg/kg). Then, the emetic episodes were counted for one hour. The emetic episodes of the compound-treated group were compared with those of the corresponding control (non-dosed) group, and the percent inhibition was calculated.

exploratory activity = assay: Inhibitory effect on exploratory activity; assay type: in vivo, male mice (Std-ddy strain); conditions: Mus musculus; oral, 2 h before test; 3 min counting; Probit; read-out: ID50 (inhibition of exploratory activity)
Description: A group of 5 male mice (Std-ddy strain, 20-25 g) was used. Two hours after oral administration of the test compounds in the form of 0.5% tragacanth solution or suspension, mice were placed individually in a test box (23×35×30 cm) on Animex activity meter (Farad Co.). Immediately thereafter, activity counting was started and lasted for three minutes. The mean counts of the compound-treated group were compared with those of the corresponding control (non-dosed) group, and the percent inhibition was calculated and the 50% inhibitory dose (ID50) was obtained according to the method of Probit.

gastric emptying = assay: Gastric emptying enhancing activity; assay type: in vivo, Male Wistar rats; conditions: 60 min before test meal, increase from control
Protocol: The test was carried out according to the method of Scarpignato et al. [cf. Arch. Int. Pharmacodyn., 246, 286-294 (1980)]. Male Wistar rats, weighing 130-150 g, were fasted for 18 hours before experimentation, and 1.5 ml of a test meal (phenol red 0.05% in a 1.5% aqueous methylcellulose solution) was orally given. Fifteen minutes after administration of the meal the stomach was removed and the amount of phenol red remaining in the stomach was measured. The test compounds, dissolved or suspended in a 0.5% tragacanth solution, were orally administered 60 minutes before administration of the test meal. The rate of gastric emptying was calculated according to the amount of phenol red remaining in the stomach, and the activity of the test compounds was expressed in terms of increase in the emptying rate from the control.

[2] = test system: gastric emptying delayed by morphine; assay: Effect on gastric emptying delayed by morphine; assay type: in vivo, Male Wistar rats; design: key to Effect on gastric emptying delayed by morphine: +: slightly to moderately improved; ++: markedly improved; ±: no improvement; conditions: for Effect on gastric emptying delayed by morphine: morphine 3 mg/kg s.c.
Protocol: (§1) The test was carried out according to the method of Scarpignato et al. [c f. Arch. int. Pharmacodyn., 246, 286-294 (1980)]. Male Wistar rats, weighing 130-150 g, were fasted for 18 hours before experimentation, and 1.5 ml of a test meal (phenol red 0.05% in a 1.5% aqueous methylcellulose solution) was orally given. Fifteen minutes after administration of the meal the stomach was removed and the amount of phenol red remaining in the stomach was measured. The test compounds, 10, 30 or 100 mg/kg, each dissolved or suspended in a 0.5% tragacanth solution, were orally administrated 60 minutes before administration of the test meal. Gastric emptying was delayed by subcutaneous administration of cholesystokinin 3 μg/kg or morphine 3 mg/kg 5 minutes before the administration of phenol red. The number of animals used was 5 to 10.

[3] = test system: gastric emptying delayed by cholecystokinin; assay: Effect on gastric emptying delayed by cholecystokinin; assay type: in vivo, Male Wistar rats; design: key to Effect on gastric emptying delayed by cholecystokinin: +: slightly to moderately improved; ++: markedly improved; ±: no improvement; conditions: for Effect on gastric emptying delayed by cholecystokinin: cholecystokinin 3 μg/kg s.c.; for Gastric emptying delayed by cholecystokinin (in words): compound 2: 30 or 100 mg/kg, 7b and Compound A: 10, 30 or 100 mg/kg
Protocol: as §1

[4] = test system: gastrointestinal motility; assay: Effect on gastrointestinal motility in conscious dog; assay type: in vivo, beagle dogs; conditions: 3 and 10 mg/kg intragastric; fed state, conscious dogs
Protocol: Four healthy beagle dogs per group of both sexes weighing 10 to 12 kg were anesthetized with an i.v. injection of pentobarbital sodium (Nembutal, 30 mg/kg b. wt.), and the abdominal cavity was opened under aseptic conditions. Extraluminal force transducers were sutured onto the seromuscular layer of the gastric antrum, 3 cm proximal to the pyloric ring, the duodenum, the jejunum, the […] terminal ileum in a manner to measure circular muscle contraction, following the method of Ito et al., [cf. Gastrointerol. Japan. 12, 275-283 (1977).] For intragastric (i.g.) administration of drugs, a Silastic tube (Fr. size 6.5) was inserted into the lumen of the gastric body, and the tube was fixed onto the adjacent serosa. The lead wires of these transducers and gastric tube were taken out of abdominal cavity and then brought out through a skin incision made between the scapulae. The outer ends of the lead wires were sutured onto the skin adjacent to the skin incision. After the operation, jacket protector was placed on the dog to protect the lead wires and the Silastic tube. The dogs were housed in individual experimental cages and given dog food at 10 a.m., and water was given freely. Test compounds at 3 and 10 mg/kg were suspended in 0.5% tragacanth solution and given i.g. through the indwelling Silastic tube.

[5] = test system: gastrointestinal motility; assay: Gastrointestinal motility improving activity (overall statement); conditions: in vivo
in vivo = conditions: mouse, oral, mice, 7 days observation

CCN1CCCC[C@H](NC(=O)c2cc3nn[nH]c3cc2OC)C1 [Compound 8b, (S)-N-(1-ethyl-1H-hexahydroazepin-3-yl)-6-methoxy-1H-benzotriazole-5-carboxamide.3/2 fumarate] gave an inhibition in vivo at 1 mg/kg [1] of 19%.

Compound CCN1CCCCC(NC(=O)c2cc3nn[nH]c3cc2OC)C1 (stereo not shown) [Compound 6, N-(1-ethyl-1H-hexahydroazepin-3-yl)-6-methoxy-1H-benzotriazole-5-carboxamide] has an inhibition in vivo at 0.3 mg/kg ([1]; 0.3 mg/kg oral) of 71%, an inhibition in vivo at 1 mg/kg [1] of 100% and an ED50 (exploratory activity) greater than 100 mg/kg. The “Increase in gastric emptying rate” value (gastric emptying; 3 mg/kg oral) was 28%.

With CCN1CCCCCC(NC(=O)c2cc3nnn(C)c3cc2OC)C1 (stereo not shown) [Compound 14, N-(1-ethyl-1H-heptahydroazocin-3-yl)-6-methoxy-1-methyl-1H-benzotriazole-5-carboxamide] the inhibition in vivo at 1 mg/kg [1] was 100% and the “Increase in gastric emptying rate” value (gastric emptying; 3 mg/kg oral) was 32%.

In the case of CCN1CCCC[C@H](NC(=O)c2cc3nnn(C)c3cc2OC)C1 [Compound 3, (S)-N-(1-ethyl-1H-hexahydroazepin-3-yl)-6-methoxy-1-methyl-1H-benzotriazole-5-carboxamide], the inhibition in vivo at 1 mg/kg [1] is reported as 36%.

In the case of CCN1CCCCC(NC(=O)c2cc3nnn(CC)c3cc2OC)C1 (stereo not shown) [Compound 4, 1-ethyl-N-(1-ethyl-1H-hexahydroazepin-3-yl)-6-methoxy-1H-benzotriazole-5-carboxamide], the inhibition in vivo at 1 mg/kg [1] is reported as 89%, the ED50 (exploratory activity) is reported as greater than 100 mg/kg and the “Increase in gastric emptying rate” value (gastric emptying; 3 mg/kg oral) is reported as 31%.

Compound CCN(CC)CCNC(=O)c1cc(Cl)c(N)cc1OC.Cl.O [Compound A, 4-Amino-5-chloro-N-[2-(diethylamino)ethyl]-2-methoxybenzamide hydrochloride monohydrate, reference compound] has an inhibition in vivo at 0.5 mg/kg ([1]; 0.5 mg/kg oral) of 56%, an inhibition in vivo at 1 mg/kg [1] of 86% and an ED50 (exploratory activity) of 22.4 mg/kg. For the same compound, the “Effect on gastric emptying delayed by morphine” value (from here on “Effect … by morphine”) ([2]; 10 mg/kg oral) was “±”, the “Effect … by morphine” value ([2]; 30 mg/kg oral) was “±” and the “Effect … by morphine” value ([2]; 100 mg/kg oral) was “±”. For the same compound, the “Gastric emptying delayed by morphine (in words)” value ([2]; 10, 30 or 100 mg/kg) was “did not show an improving activity against the delay in gastric emptying induced by cholecystokinin or morphine”, the “Increase in gastric emptying rate” value (gastric emptying; 2 mg/kg oral) was 21% and the “Increase in gastric emptying rate” value (gastric emptying; 5 mg/kg oral) was 26%. The “Increase in gastric emptying rate” value (gastric emptying; 10 mg/kg oral) was 31%, the “Effect on gastric emptying delayed by cholecystokinin” value (“Effect … by cholecystokinin” for short) ([3]; 10 mg/kg oral) was “±” and the “Effect … by cholecystokinin” value ([3]; 30 mg/kg oral) was “±”. The “Effect … by cholecystokinin” value ([3]; 100 mg/kg oral) was “±”, the “Gastric emptying delayed by cholecystokinin (in words)” value [3] was “did not show an improving activity against the delay in gastric emptying induced by cholecystokinin or morphine” and the Interdigestive migrating like-contractions [4] was “did not cause interdigestive migrating contractions at all”.

Work on CCN1CCCCC(NC(=O)c2cc3nnn(C)c3cc2OC)C1 (stereo not shown) [Compound 1, N-(1-ethyl-1H-hexahydroazepin-3-yl)-6-methoxy-1-methyl-1H-benzotriazole-5-carboxamide] yielded an inhibition in vivo at 1 mg/kg [1] of 77% and an ED50 (exploratory activity) greater than 100 mg/kg.

Compound CCN1CCCCCC(NC(=O)c2cc3nn[nH]c3cc2OC)C1 (stereo not shown) [Compound 9, N-(1-ethyl-1H-heptahydroazocin-3-yl)-6-methoxy-1H-benzotriazole-5-carboxamide] has an inhibition in vivo at 1 mg/kg [1] of 100%.

In the case of CCN1CCCC[C@@H](NC(=O)c2cc3nn[nH]c3cc2OC)C1 [Compound 7a, (R)-N-(1-ethyl-1H-hexahydroazepin-3-yl)-6-methoxy-1H-benzotriazole-5-carboxamide], the “Gastrointestinal motility improving activity (in words)” value [5] is reported as “especially excellent gastrointestinal motility improving activity”, the inhibition in vivo at 0.1 mg/kg [1] is reported as 73% and the inhibition in vivo at 1 mg/kg [1] is reported as 100%. For the same compound, the ED50 (exploratory activity) was greater than 100 mg/kg.

With CCN1CCCC[C@@H](NC(=O)c2cc3nnn(CC)c3cc2OC)C1 [Compound 5, (R)-1-ethyl-N-(1-ethyl-1H-hexahydroazepin-3-yl)-6-methoxy-1H-benzotriazole-5-carboxamide] the inhibition in vivo at 1 mg/kg [1] was 100% and the “Increase in gastric emptying rate” value (gastric emptying; 3 mg/kg oral) was 35%.

Compound CCN1CCCCCCC(NC(=O)c2cc3nnn(C)c3cc2OC)C1 (stereo not shown) [Compound 15, N-(1-ethyl-1H-octahydroazonin-3-yl)-6-methoxy-1-methyl-1H-benzotriazole-5-carboxamide] has an inhibition in vivo at 1 mg/kg [1] of 71%.

COc1cc2c(cc1C(=O)N[C@@H]1CCCCN(CC3CC3)C1)nnn2C [Compound 13, (R)-N-(1-cyclopropylmethyl-1H-hexahydroazepin-3-yl)-6-methoxy-1-methyl-1H-benzotriazole-5-carboxamide] showed an inhibition in vivo at 1 mg/kg [1] of 73%.

With CCN1CCCCCCC(NC(=O)c2cc3nn[nH]c3cc2OC)C1 (stereo not shown) [Compound 10, N-(1-ethyl-1H-octahydroazonin-3-yl)-6-methoxy-1H-benzotriazole-5-carboxamide] the inhibition in vivo at 1 mg/kg [1] was 100% and the “Increase in gastric emptying rate” value (gastric emptying; 3 mg/kg oral) was 46%.

In the case of COc1cc2[nH]nnc2cc1C(=O)NC1CCCCN(CC2CC2)C1 (stereo not shown) [Compound 11, N-(1-cyclopropylmethyl-1H-hexahydroazepin-3-yl)-6-methoxy-1H-benzotriazole-5-carboxamide], the inhibition in vivo at 1 mg/kg [1] is reported as 92% and the “Increase in gastric emptying rate” value (gastric emptying; 3 mg/kg oral) is reported as 34%.

In the case of CCN1CCCC[C@@H](NC(=O)c2cc3nnn(C)c3cc2OC)C1 [Compound 2, (R)-N-(1-ethyl-1H-hexahydroazepin-3-yl)-6-methoxy-1-methyl-1H-benzotriazole-5-carboxamide], the “Gastrointestinal motility improving activity (in words)” value [5] is reported as “especially excellent gastrointestinal motility improving activity”, the inhibition in vivo at 0.1 mg/kg [1] is reported as 80% and the inhibition in vivo at 1 mg/kg [1] is reported as 100%. For the same compound, the ED50 (exploratory activity) was greater than 100 mg/kg, the “Increase in gastric emptying rate” value (gastric emptying; 3 mg/kg oral) was 41% and the LD50 at 168 h (in vivo) was 688 mg/kg. The “Effect … by cholecystokinin” value ([3]; 30 mg/kg oral) was “+”, the “Effect … by cholecystokinin” value ([3]; 100 mg/kg oral) was “++” and the “Gastric emptying delayed by cholecystokinin (in words)” value [3] was “significantly improved gastric emptying delayed by cholecystokinin”. The Interdigestive migrating like-contractions [4] was “caused interdigestive migrating like-contractions in fed state in conscious dogs”.

Work on COc1cc2[nH]nnc2cc1C(=O)N[C@@H]1CCCCN(CC2CC2)C1 [Compound 12, (R)-N-(1-cyclopropylmethyl-1H-hexahydroazepin-3-yl)-6-methoxy-1H-benzotriazole-5-carboxamide] yielded an inhibition in vivo at 1 mg/kg [1] of 92%.
